According to patent US9181286B2, “Pantothenate derivatives for the treatment of neurologic disorders” (Retrophin, Inc., priority 2012, dated 2015):

Experiments:
[1] = test system: Escherichia coli K-12 strain SJ16; experiment: SJ16 recovery (in vitro bacterial testing, growth without pantothenate); format: cell-based; conditions: test compound 8 μM in growth medium, 37° C., 18 hours, solid medium without calcium pantothenate (non-permissive)
Procedure: Thus, it serves as a useful assay in determining whether a compound can rescue an organism deficient in PANK, the cause of PKAN. Compounds of the present invention were tested for toxicity and for the ability to support growth of Escherichia coli K-12 strains SJ16 (see, e.g., Jackowski et al., J. Bacteriol., 148, 926-932, 1981) and DV70 (see, e.g., Vallari et al., J. Bacteriol., 169, 5795-5800, 1987) under permissive and non-permissive conditions. The test compound in a solvent (dimethylsulfoxide, DMSO) was added to growth medium at a final concentration of 8 μM. Solvent alone (DMSO) was added to the growth medium at a final concentration ≦0.1% as a control.
Strain SJ16 was grown at 37° C. for 18 hours on a solid medium containing agar (1.5%), M9 minimal essential salts (see, Miller, Experiments in Molecular Genetics. Cold Spring Harbor Laboratory, Cold Spring Harbor, N.Y., 1972), glucose (0.4%), methionine (50 μg/ml), and with (permissive) or without (non-permissive) calcium pantothenate (1 μM). Lack of growth with calcium pantothenate supplementation indicated toxicity. Growth without calcium pantothenate supplementation indicated the ability of the bacteria to metabolize the compound to yield pantothenate or β-alanine.

[2] = test system: HEK 293T cells; experiment: Acetyl-CoA level in HEK 293T cells by mass spectrometry; format: cell-based, human; conditions: 200 μM compound, p<0.0005
Procedure: FIG. 1 is a bar graph showing the levels of acetyl CoA in human HEK 293T cells, as measured by mass spectrometry, following treatment with the compounds of Examples 2, 5, 7 and 12.
The compounds of Examples 2, 5, 7 and 12 were tested in immortalized human cells (HEK 293T). The amount of acetyl-CoA (the downstream result of PANK) following administration of the compounds of Examples 2, 5, 7 and 12 were measured by mass spectrometry.
Treatment of HEK 293T cells with 20 μM of the compound of Example 7 afforded a 38% increase in acetyl CoA over baseline (p<0.005).

[3] = test system: Pank1−/− mice; experiment: Liver Coenzyme A (mBBr-CoA, HPLC) in Pank1−/− mice; format: in vivo
Procedure: Compounds of the invention were tested for efficacy in Pank1^−/− mice (strain 129SvJ×C57BL/6J background) which were compared with age-matched Pank1^+/+ (strain 129SvJ×C57BL/6J) littermates, ages 8-12 weeks. Each mouse was identified with a coded ear tag and weighed on the first day of testing. Each compound was administered to 4-5 mice by intraperitoneal injection at a dose of 1.2 μmoles/g body weight in 5 μL dimethylsulfoxide once daily for 5 days, and mice were then fasted overnight, weighed and euthanized. Untreated mice received 5 μL dimethylsulfoxide once daily for 5 days and then were fasted overnight prior to weighing and euthanasia. Livers were excised from each mouse, aliquots were snap-frozen in liquid nitrogen, and stored at −80° C. Within 7 days, liver samples were thawed on ice, weighed and analyzed for coenzyme A content as described below. Efficacy was indicated by a statistically significant increase in the liver Coenzyme A levels in the Pank1^−/− mice as compared to the liver from untreated Pank1^−/− mice and by equivalence in comparison with Coenzyme A levels in untreated Pank1^+/+ mice.
CoA Measurements: Extraction of Fibroblasts and Liver and Derivatization of Coenzyme A Prior to High Pressure Liquid Chromatography (HPLC) […]
Coenzyme A Quantification by HPLC […]

## COC(=O)CCNC(=O)[C@H](O)C(C)(C)COP(=O)(N[C@@H](C)C(=O)OC)Oc1ccccc1 (stereo partly drawn) [Example 2, methyl 3-((2R)-2-hydroxy-4-(((((S)-1-methoxy-1-oxopropan-2-yl)amino)(phenoxy)phosphoryl)oxy)-3,3-dimethylbutanamido)propanoate]
[1]
  SJ16 Recovery: Yes
[2]
  increase in acetyl CoA over baseline: 42%
[3]; PANK knockout mice, liver mBBr CoA, FIG. 2, compared with normal mice
  levels of CoA in PANK knockout mice (in words): restored levels of CoA to those seen in normal mice
[3]; pank1 KO mice, intraperitoneal 1.2 μmoles/g body weight once daily for 5 days, fasted overnight, liver, n=5
  pmol mBBR-CoA/mg Liver, Mean: 563.358 pmol mBBR-CoA/mg Liver
